ChEMBL document CHEMBL1201862, “PubChem BioAssay data set” (2004)
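Method: 48-hour compound exposure of cells in 96-well plates, five concentrations, linear interpolation of endpoints. Abbreviation: GI50, concentration required for 50% inhibition of growth.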 Calls of active or inactive are those of the source. Cut-off read from the data, not from the text of the source: active = GI50 up to about 1.1 µM and inactive = higher.

Tests used:
Assay in all cases: NCI anticancer screen, dose series, 48 h
[1] = system: A498
[2] = system: A549
[3] = system: CCRF-CEM
[4] = system: HCT-116
[5] = system: HCT-15
[6] = system: HOP-62
[7] = system: K562
[8] = system: KM12
[9] = system: M14
[10] = system: MCF7
[11] = system: MDA-MB-231
[12] = system: MOLT-4
[13] = system: OVCAR-3
[14] = system: PC-3
[15] = system: SF-295
[16] = system: SNB-75
[17] = system: IGROV-1
[18] = system: LOX IMVI
[19] = system: NCI-H522
[20] = system: SR

Row | SMILES | GI50 [1] | GI50 [2] | GI50 [3] | GI50 [4] | GI50 [5] | GI50 [6] | GI50 [7] | GI50 [8] | GI50 [9] | GI50 [10] | GI50 [11] | GI50 [12] | GI50 [13] | GI50 [14] | GI50 [15] | GI50 [16] | GI50 [17] | GI50 [18] | GI50 [19] | GI50 [20]
1 | O=[N+]([O-])C(/C(Cl)=C(/Cl)N1CCOCC1)=C1\Nc2ccccc2O1 | > 100 µM (inactive) | > 100 µM (inactive) | > 100 µM (inactive) | > 100 µM (inactive) | > 100 µM | > 100 µM (inactive) | > 100 µM (inactive) | > 100 µM (inactive) | > 100 µM (inactive) | > 100 µM (inactive) | > 100 µM (inactive) | > 100 µM (inactive) | 24.4 µM (inactive) | > 100 µM (inactive) | > 100 µM (inactive) | > 100 µM (inactive) | – | – | – | –
2 | CC(=O)OCC1OC(NC(=S)N/N=C2\CC(c3ccccc3)Oc3ccccc32)C(OC(C)=O)C(OC(C)=O)C1OC(C)=O (stereo unspecified) | > 100 µM (inactive) | > 100 µM (inactive) | > 100 µM (inactive) | > 100 µM (inactive) | > 100 µM | > 100 µM (inactive) | > 100 µM (inactive) | > 100 µM (inactive) | > 100 µM (inactive) | – | – | > 100 µM (inactive) | > 100 µM (inactive) | – | > 100 µM (inactive) | > 100 µM (inactive) | > 100 µM (inactive) | > 100 µM (inactive) | > 100 µM (inactive) | > 100 µM (inactive)
3 | Nc1ccccc1C(=O)CCC1C(=O)NC(=S)NC1=O | > 100 µM (inactive) | > 100 µM (inactive) | > 100 µM (inactive) | > 100 µM (inactive) | > 100 µM | > 100 µM (inactive) | > 100 µM (inactive) | > 100 µM (inactive) | > 100 µM (inactive) | > 100 µM (inactive) | – | > 100 µM (inactive) | > 100 µM (inactive) | > 100 µM (inactive) | > 100 µM (inactive) | 43.8 µM (inactive) | > 100 µM (inactive) | > 100 µM (inactive) | > 100 µM (inactive) | > 100 µM (inactive)
4 | S=C=NC1CCC(c2cc3ccccc3s2)(N2CCCCC2)CC1 (stereo unspecified) | 2.26 µM (inactive) | 3.01 µM (inactive) | 0.577 µM (active) | 1.82 µM (inactive) | 1.53 µM | 2.07 µM (inactive) | 0.0546 µM (active) | 1.87 µM (inactive) | 1.86 µM (inactive) | 2.09 µM (inactive) | – | 0.127 µM (active) | 2.09 µM (inactive) | – | 2.58 µM (inactive) | 1.87 µM (inactive) | – | 1.64 µM (inactive) | 1.63 µM (inactive) | 0.071 µM (active)
5 | COc1ccc(CSc2ccccc2Cn2cccc2)cc1OC | 27.6 µM (inactive) | 98.2 µM (inactive) | 50.5 µM (inactive) | 89.1 µM (inactive) | 87.9 µM | > 100 µM (inactive) | 27 µM (inactive) | 28.3 µM (inactive) | – | 36.2 µM (inactive) | – | > 10 µM (inactive) | 16 µM (inactive) | – | 25.5 µM (inactive) | > 100 µM (inactive) | > 100 µM (inactive) | 73.5 µM (inactive) | – | 50.5 µM (inactive)
6 | CC(Cl)(/C=C/Cl)C(Cl)/C=C/C(Cl)(CCl)CBr (stereo unspecified) | 13.5 µM (inactive) | 15.2 µM (inactive) | 0.305 µM (active) | 1.54 µM (inactive) | 0.308 µM | 24.3 µM (inactive) | 1.65 µM (inactive) | 6.64 µM (inactive) | 2.54 µM (inactive) | – | – | 0.373 µM (active) | 12.5 µM (inactive) | – | 6.53 µM (inactive) | 3.17 µM (inactive) | 8.71 µM (inactive) | 1.66 µM (inactive) | 1.45 µM (inactive) | 0.191 µM (active)
7 | COC(=O)C(CCSC)NC(=O)CNC(=O)CSc1nnc(COc2ccc(Cl)cc2)n1-c1ccccc1 (stereo unspecified) | 29.1 µM (inactive) | 41.3 µM (inactive) | 7.83 µM (inactive) | 16.9 µM (inactive) | 18.3 µM | 17.1 µM (inactive) | 26.5 µM (inactive) | 20.2 µM (inactive) | 19.5 µM (inactive) | 17.9 µM (inactive) | 16 µM (inactive) | 5.36 µM (inactive) | – | 16.6 µM (inactive) | – | 19.1 µM (inactive) | 16.6 µM (inactive) | 11.6 µM (inactive) | – | –
8 | CCCC(=O)NC(Nc1ccc(S(=O)(=O)Nc2ccc(OC)nn2)cc1)(C(F)(F)F)C(F)(F)F | 87.9 µM (inactive) | > 100 µM (inactive) | > 100 µM (inactive) | > 100 µM (inactive) | > 100 µM | > 100 µM (inactive) | > 100 µM (inactive) | > 100 µM (inactive) | > 100 µM (inactive) | – | > 100 µM (inactive) | > 100 µM (inactive) | > 100 µM (inactive) | > 100 µM (inactive) | > 100 µM (inactive) | > 100 µM (inactive) | > 100 µM (inactive) | > 100 µM (inactive) | > 100 µM (inactive) | > 100 µM (inactive)
9 | CCCS(=O)(=O)/C(=C(\c1ccc(Br)cc1)S(=O)(=O)CCC)c1ccc(Br)cc1 | > 10 µM (inactive) | > 10 µM (inactive) | > 10 µM (inactive) | > 10 µM (inactive) | > 10 µM | > 10 µM (inactive) | > 10 µM (inactive) | > 10 µM (inactive) | > 10 µM (inactive) | – | – | > 10 µM (inactive) | > 10 µM (inactive) | – | > 10 µM (inactive) | > 10 µM (inactive) | > 10 µM (inactive) | > 10 µM (inactive) | > 10 µM (inactive) | > 10 µM (inactive)
10 | O=C(Nc1nc2ncn(CC(COc3ccccc3)OC(=O)c3ccccc3)c2c(=O)[nH]1)c1ccccc1 (stereo unspecified) | > 100 µM (inactive) | > 100 µM (inactive) | – | > 100 µM (inactive) | > 100 µM | > 100 µM (inactive) | > 100 µM (inactive) | > 100 µM (inactive) | > 100 µM (inactive) | – | – | > 100 µM (inactive) | > 100 µM (inactive) | – | 48 µM (inactive) | > 100 µM (inactive) | > 100 µM (inactive) | > 100 µM (inactive) | > 100 µM (inactive) | 58.5 µM (inactive)
11 | CCOC(=O)C1=C(C)N(Cc2ccccc2)C(C)=C(C(=O)OCC)C1c1ccccc1O | 33.7 µM (inactive) | 29.2 µM (inactive) | 27 µM (inactive) | 29.4 µM (inactive) | 30.1 µM | 31.5 µM (inactive) | 33.4 µM (inactive) | 23.7 µM (inactive) | 33.7 µM (inactive) | – | – | 11.3 µM (inactive) | 25.2 µM (inactive) | – | 33.1 µM (inactive) | 27.5 µM (inactive) | 25.5 µM (inactive) | 17.9 µM (inactive) | 25.6 µM (inactive) | 15.9 µM (inactive)
12 | c1ccc2c(c1)oc1ccc3nsnc3c12 | 63.4 µM (inactive) | > 100 µM (inactive) | > 100 µM (inactive) | > 100 µM (inactive) | > 100 µM | – | > 100 µM (inactive) | 56 µM (inactive) | > 100 µM (inactive) | – | – | > 100 µM (inactive) | > 100 µM (inactive) | – | > 100 µM (inactive) | 53.3 µM (inactive) | > 100 µM (inactive) | > 10 µM (inactive) | > 100 µM (inactive) | > 100 µM (inactive)
13 | CCN(CC)CCNc1ccc2ncn3c4ccc(OC)cc4c(=O)c1c23 | 6.7 µM (inactive) | 2.91 µM (inactive) | 1.34 µM (inactive) | 0.592 µM (active) | 1.57 µM | 5.21 µM (inactive) | 2.75 µM (inactive) | 1.78 µM (inactive) | 5.21 µM (inactive) | 57 µM (inactive) | – | 0.31 µM (active) | 7.78 µM (inactive) | 3.83 µM (inactive) | 2.28 µM (inactive) | 7.08 µM (inactive) | 4.35 µM (inactive) | 1.51 µM (inactive) | 2.32 µM (inactive) | 1.85 µM (inactive)
14 | O=C1CC(C[C@H](O)C2CCCCC2O)CC(=O)N1Cc1ccccc1 (stereo partly specified) | > 100 µM (inactive) | > 100 µM (inactive) | > 100 µM (inactive) | > 100 µM (inactive) | – | > 100 µM (inactive) | > 100 µM (inactive) | > 100 µM (inactive) | > 100 µM (inactive) | – | – | > 100 µM (inactive) | > 100 µM (inactive) | – | > 100 µM (inactive) | > 100 µM (inactive) | > 100 µM (inactive) | > 100 µM (inactive) | > 100 µM (inactive) | > 100 µM (inactive)
15 | N#CC(c1nc2ccccc2s1)c1ncnc(Cl)c1[N+](=O)[O-] (stereo unspecified) | > 100 µM (inactive) | 36.3 µM (inactive) | 0.361 µM (active) | 12.6 µM (inactive) | 17.9 µM | 28.8 µM (inactive) | – | 32.5 µM (inactive) | 17.5 µM (inactive) | – | 30.8 µM (inactive) | 31.8 µM (inactive) | 20.1 µM (inactive) | – | > 100 µM (inactive) | 22.9 µM (inactive) | 14.6 µM (inactive) | 17.3 µM (inactive) | 18.9 µM (inactive) | –
16 | c1ccc(C2CC(c3ccc4ccccc4c3)=Nc3ccccc3S2)cc1 (stereo unspecified) | 17.3 µM (inactive) | 18.3 µM (inactive) | 26.1 µM (inactive) | 14.8 µM (inactive) | – | 17.1 µM (inactive) | 20 µM (inactive) | 17.7 µM (inactive) | 15.8 µM (inactive) | – | – | 30.4 µM (inactive) | 17.3 µM (inactive) | – | 17.9 µM (inactive) | 15.6 µM (inactive) | 22.8 µM (inactive) | 15.7 µM (inactive) | 17 µM (inactive) | 23.7 µM (inactive)
17 | CC(=O)O/C(C)=C\C(=O)O/N=C(\N)c1ccc(C)cc1 | 62.7 µM (inactive) | 40.4 µM (inactive) | 17.3 µM (inactive) | 19.9 µM (inactive) | – | 33.1 µM (inactive) | 19.6 µM (inactive) | 41.8 µM (inactive) | 28.4 µM (inactive) | – | – | 23.1 µM (inactive) | 34.7 µM (inactive) | – | 35.2 µM (inactive) | 19.2 µM (inactive) | 28.3 µM (inactive) | 34.4 µM (inactive) | 21 µM (inactive) | 20.5 µM (inactive)
